Measured values taken from PubChem BioAssay (NCI).
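Step 1: Grow cells in 96-well plates. Step 2: Expose to compound for 48 hours at 5 concentrations. Step 3: Interpolate endpoints linearly; if unreached, use highest concentration. TGI is the concentration that stops growth completely.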

Tests used:
Assay in all cases: NCI tumour cell line growth inhibition, 48 h
RXF 393 renal = test system: RXF 393 renal
UACC-62 melanoma = test system: UACC-62 melanoma
K-562 leukemia = test system: K-562 leukemia
DMS 273 small cell lung = test system: DMS 273 small cell lung
A549 NSCLC = test system: A549 NSCLC
CAKI-1 renal = test system: CAKI-1 renal
HOP-62 NSCLC = test system: HOP-62 NSCLC
NCI/ADR-RES ovarian = test system: NCI/ADR-RES ovarian
P388 leukemia = test system: P388 leukemia
NCI-H23 lung = test system: NCI-H23 lung
SNB-78 CNS = test system: SNB-78 CNS
HOP-92 NSCLC = test system: HOP-92 NSCLC
OVCAR-4 ovarian = test system: OVCAR-4 ovarian
SF-295 CNS = test system: SF-295 CNS
A498 renal = test system: A498 renal
EKVX NSCLC = test system: EKVX NSCLC
CCRF-CEM leukemia = test system: CCRF-CEM leukemia
COLO 205 colon = test system: COLO 205 colon
NCI-H460 lung = test system: NCI-H460 lung
XF 498 CNS = test system: XF 498 CNS
DLD-1 colon = test system: DLD-1 colon
MALME-3M melanoma = test system: MALME-3M melanoma
SF-268 CNS = test system: SF-268 CNS
SK-MEL-28 melanoma = test system: SK-MEL-28 melanoma
UACC-257 melanoma = test system: UACC-257 melanoma
SW-620 colon = test system: SW-620 colon
HCC-2998 colon = test system: HCC-2998 colon
SK-MEL-5 melanoma = test system: SK-MEL-5 melanoma
OVCAR-3 ovarian = test system: OVCAR-3 ovarian
SF-539 CNS = test system: SF-539 CNS
MCF7 breast = test system: MCF7 breast
HT29 colon = test system: HT29 colon
HCT-116 colon = test system: HCT-116 colon
LOX IMVI melanoma = test system: LOX IMVI melanoma
IGROV1 ovarian = test system: IGROV1 ovarian
U251 CNS = test system: U251 CNS
SN12C renal = test system: SN12C renal
SK-OV-3 ovarian = test system: SK-OV-3 ovarian
OVCAR-8 ovarian = test system: OVCAR-8 ovarian
RPMI-8226 leukemia = test system: RPMI-8226 leukemia
HOP-18 NSCLC = test system: HOP-18 NSCLC
NCI-H226 lung = test system: NCI-H226 lung
SNB-75 CNS = test system: SNB-75 CNS
OVCAR-5 ovarian = test system: OVCAR-5 ovarian
SN12K1 renal = test system: SN12K1 renal
P388/ADR leukemia = test system: P388/ADR leukemia
KM12 colon = test system: KM12 colon
NCI-H522 lung = test system: NCI-H522 lung
KM20L2 colon = test system: KM20L2 colon
SK-MEL-2 melanoma = test system: SK-MEL-2 melanoma
HCT-15 colon = test system: HCT-15 colon
UO-31 renal = test system: UO-31 renal
MOLT-4 leukemia = test system: MOLT-4 leukemia
SNB-19 CNS = test system: SNB-19 CNS
M19-MEL melanoma = test system: M19-MEL melanoma
HL-60(TB) leukemia = test system: HL-60(TB) leukemia
DMS 114 small cell lung = test system: DMS 114 small cell lung
ACHN renal = test system: ACHN renal
TK-10 renal = test system: TK-10 renal
SR leukemia = test system: SR leukemia
M14 melanoma = test system: M14 melanoma

Molecule `CC1(C)S[C@@H]2[C@H](NC(=O)CCC[C@@H](N)C(=O)O)C(=O)N2[C@H]1C(=O)O` has a TGI (RXF 393 renal) of over 50 µM, a TGI (UACC-62 melanoma) of over 50 µM and a TGI (K-562 leukemia) of over 50 µM. For the same molecule, the TGI (DMS 273 small cell lung) was over 50 µM, the TGI (A549 NSCLC) was over 50 µM and the TGI (CAKI-1 renal) was over 50 µM. The TGI (HOP-62 NSCLC) was over 50 µM, the TGI (NCI/ADR-RES ovarian) was over 31.6 µM and the TGI (P388 leukemia) was over 50 µM. For the same molecule, the TGI (NCI-H23 lung) was over 50 µM, the TGI (SNB-78 CNS) was over 50 µM and the TGI (HOP-92 NSCLC) was over 50 µM. The TGI (OVCAR-4 ovarian) was over 50 µM, the TGI (SF-295 CNS) was over 50 µM and the TGI (A498 renal) was over 50 µM. It also gave a TGI (EKVX NSCLC) of over 50 µM, a TGI (CCRF-CEM leukemia) of over 50 µM and a TGI (COLO 205 colon) of over 50 µM. For the same molecule, the TGI (NCI-H460 lung) was over 50 µM, the TGI (XF 498 CNS) was over 42 µM and the TGI (DLD-1 colon) was over 50 µM. It also gave a TGI (MALME-3M melanoma) of over 50 µM, a TGI (SF-268 CNS) of over 50 µM and a TGI (SK-MEL-28 melanoma) of over 50 µM. For the same molecule, the TGI (UACC-257 melanoma) was over 50 µM, the TGI (SW-620 colon) was over 31.6 µM and the TGI (HCC-2998 colon) was over 50 µM. It also gave a TGI (SK-MEL-5 melanoma) of over 21.6 µM, a TGI (OVCAR-3 ovarian) of over 50 µM and a TGI (SF-539 CNS) of over 50 µM. It also gave a TGI (MCF7 breast) of over 50 µM, a TGI (HT29 colon) of over 50 µM and a TGI (HCT-116 colon) of over 50 µM. For the same molecule, the TGI (LOX IMVI melanoma) was over 50 µM, the TGI (IGROV1 ovarian) was over 50 µM and the TGI (U251 CNS) was over 28.4 µM. The TGI (SN12C renal) was over 50 µM, the TGI (SK-OV-3 ovarian) was 49.9 µM and the TGI (OVCAR-8 ovarian) was over 19.9 µM. The TGI (RPMI-8226 leukemia) was over 50 µM, the TGI (HOP-18 NSCLC) was over 50 µM and the TGI (NCI-H226 lung) was over 50 µM. The TGI (SNB-75 CNS) was over 50 µM, the TGI (OVCAR-5 ovarian) was over 28.1 µM and the TGI (SN12K1 renal) was over 50 µM. The TGI (P388/ADR leukemia) was over 50 µM, the TGI (KM12 colon) was over 50 µM and the TGI (NCI-H522 lung) was over 50 µM. The TGI (KM20L2 colon) was over 28 µM, the TGI (SK-MEL-2 melanoma) was over 50 µM and the TGI (HCT-15 colon) was over 50 µM. The TGI (UO-31 renal) was over 50 µM, the TGI (MOLT-4 leukemia) was over 50 µM and the TGI (SNB-19 CNS) was over 50 µM. The TGI (M19-MEL melanoma) was over 50 µM and the TGI (HL-60(TB) leukemia) was over 50 µM.

`O=C(O)C(Cc1cccs1)NC(=O)C(F)(F)F` (stereo not given) gave a TGI (RXF 393 renal) of over 100 µM, a TGI (UACC-62 melanoma) of over 100 µM and a TGI (K-562 leukemia) of over 100 µM. For the same molecule, the TGI (DMS 273 small cell lung) was over 100 µM, the TGI (A549 NSCLC) was over 100 µM and the TGI (CAKI-1 renal) was over 100 µM. It also gave a TGI (HOP-62 NSCLC) of over 100 µM, a TGI (NCI/ADR-RES ovarian) of over 100 µM and a TGI (P388 leukemia) of over 100 µM. The TGI (NCI-H23 lung) was over 100 µM, the TGI (HOP-92 NSCLC) was over 100 µM and the TGI (OVCAR-4 ovarian) was over 100 µM. For the same molecule, the TGI (SF-295 CNS) was over 100 µM, the TGI (A498 renal) was over 100 µM and the TGI (EKVX NSCLC) was over 100 µM. It also gave a TGI (CCRF-CEM leukemia) of over 100 µM, a TGI (COLO 205 colon) of over 100 µM and a TGI (NCI-H460 lung) of over 100 µM. The TGI (DLD-1 colon) was over 100 µM, the TGI (MALME-3M melanoma) was over 100 µM and the TGI (SF-268 CNS) was over 100 µM. It also gave a TGI (SK-MEL-28 melanoma) of over 100 µM, a TGI (UACC-257 melanoma) of over 100 µM and a TGI (SW-620 colon) of over 100 µM. For the same molecule, the TGI (HCC-2998 colon) was over 100 µM, the TGI (SK-MEL-5 melanoma) was over 100 µM and the TGI (OVCAR-3 ovarian) was over 100 µM. For the same molecule, the TGI (SF-539 CNS) was over 100 µM, the TGI (MCF7 breast) was over 100 µM and the TGI (HT29 colon) was over 100 µM. It also gave a TGI (HCT-116 colon) of over 100 µM, a TGI (LOX IMVI melanoma) of over 100 µM and a TGI (IGROV1 ovarian) of over 100 µM. For the same molecule, the TGI (U251 CNS) was over 100 µM, the TGI (SN12C renal) was over 100 µM and the TGI (SK-OV-3 ovarian) was over 100 µM. For the same molecule, the TGI (OVCAR-8 ovarian) was over 100 µM, the TGI (RPMI-8226 leukemia) was over 100 µM and the TGI (HOP-18 NSCLC) was over 100 µM. It also gave a TGI (NCI-H226 lung) of over 100 µM, a TGI (SNB-75 CNS) of over 100 µM and a TGI (DMS 114 small cell lung) of over 100 µM. For the same molecule, the TGI (OVCAR-5 ovarian) was over 100 µM, the TGI (SN12K1 renal) was over 100 µM and the TGI (P388/ADR leukemia) was over 100 µM. For the same molecule, the TGI (KM12 colon) was over 100 µM, the TGI (NCI-H522 lung) was over 100 µM and the TGI (KM20L2 colon) was over 100 µM. The TGI (SK-MEL-2 melanoma) was over 100 µM, the TGI (HCT-15 colon) was over 100 µM and the TGI (UO-31 renal) was over 100 µM. The TGI (MOLT-4 leukemia) was over 100 µM, the TGI (SNB-19 CNS) was over 100 µM and the TGI (M19-MEL melanoma) was over 100 µM. For the same molecule, the TGI (HL-60(TB) leukemia) was over 100 µM.

`CCCCOC(=O)CN1C(=O)c2ccccc2C1=O` showed a TGI (RXF 393 renal) of over 100 µM, a TGI (UACC-62 melanoma) of over 100 µM and a TGI (DMS 273 small cell lung) of over 100 µM. It also gave a TGI (A549 NSCLC) of over 100 µM, a TGI (CAKI-1 renal) of over 100 µM and a TGI (HOP-62 NSCLC) of over 100 µM. For the same molecule, the TGI (NCI-H23 lung) was over 100 µM, the TGI (SNB-78 CNS) was over 100 µM and the TGI (HOP-92 NSCLC) was over 100 µM. For the same molecule, the TGI (OVCAR-4 ovarian) was over 100 µM, the TGI (ACHN renal) was over 100 µM and the TGI (SF-295 CNS) was over 100 µM. It also gave a TGI (EKVX NSCLC) of over 100 µM, a TGI (COLO 205 colon) of over 100 µM and a TGI (NCI-H460 lung) of over 100 µM. For the same molecule, the TGI (XF 498 CNS) was over 100 µM, the TGI (DLD-1 colon) was over 100 µM and the TGI (MALME-3M melanoma) was over 100 µM. The TGI (SF-268 CNS) was over 100 µM, the TGI (SK-MEL-28 melanoma) was over 100 µM and the TGI (UACC-257 melanoma) was over 100 µM. For the same molecule, the TGI (SW-620 colon) was over 100 µM, the TGI (HCC-2998 colon) was over 100 µM and the TGI (SK-MEL-5 melanoma) was over 100 µM. For the same molecule, the TGI (OVCAR-3 ovarian) was over 100 µM, the TGI (SF-539 CNS) was over 100 µM and the TGI (HT29 colon) was over 100 µM. For the same molecule, the TGI (HCT-116 colon) was over 100 µM, the TGI (TK-10 renal) was over 100 µM and the TGI (LOX IMVI melanoma) was over 100 µM. It also gave a TGI (IGROV1 ovarian) of over 100 µM, a TGI (U251 CNS) of over 100 µM and a TGI (SK-OV-3 ovarian) of over 100 µM. It also gave a TGI (OVCAR-8 ovarian) of over 100 µM, a TGI (NCI-H226 lung) of over 100 µM and a TGI (SNB-75 CNS) of over 100 µM. For the same molecule, the TGI (OVCAR-5 ovarian) was over 100 µM, the TGI (KM12 colon) was over 100 µM and the TGI (NCI-H522 lung) was over 100 µM. The TGI (KM20L2 colon) was over 100 µM, the TGI (SR leukemia) was over 100 µM and the TGI (SK-MEL-2 melanoma) was over 100 µM. For the same molecule, the TGI (M14 melanoma) was over 100 µM, the TGI (HCT-15 colon) was over 100 µM and the TGI (UO-31 renal) was over 100 µM. It also gave a TGI (MOLT-4 leukemia) of over 100 µM, a TGI (SNB-19 CNS) of over 100 µM and a TGI (M19-MEL melanoma) of over 100 µM. For the same molecule, the TGI (HL-60(TB) leukemia) was over 100 µM.
